Assay results as given in ChEMBL document CHEMBL4732086, “Targeting nuclear protein TDP-43 by cell division cycle kinase 7 inhibitors: A new therapeutic approach for amyotrophic lateral sclerosis” (Eur J Med Chem, 2021).
Calls of active or inactive are those of the source. The rule behind the calls is not given here.

Columns and labels:
[1] = molecular target: Vascular endothelial growth factor receptor 2 (Homo sapiens) (UniProt P35968); assay: Inhibition of recombinant human His-tagged KDR expressed in baculovirus expression system using Tyr-01 peptide as substrate at 10 uM incubated for 60 mins in presence of ATP by Z'-LYTE assay
Chain of Vascular endothelial growth factor receptor 2 (Homo sapiens) (P35968 whole entry): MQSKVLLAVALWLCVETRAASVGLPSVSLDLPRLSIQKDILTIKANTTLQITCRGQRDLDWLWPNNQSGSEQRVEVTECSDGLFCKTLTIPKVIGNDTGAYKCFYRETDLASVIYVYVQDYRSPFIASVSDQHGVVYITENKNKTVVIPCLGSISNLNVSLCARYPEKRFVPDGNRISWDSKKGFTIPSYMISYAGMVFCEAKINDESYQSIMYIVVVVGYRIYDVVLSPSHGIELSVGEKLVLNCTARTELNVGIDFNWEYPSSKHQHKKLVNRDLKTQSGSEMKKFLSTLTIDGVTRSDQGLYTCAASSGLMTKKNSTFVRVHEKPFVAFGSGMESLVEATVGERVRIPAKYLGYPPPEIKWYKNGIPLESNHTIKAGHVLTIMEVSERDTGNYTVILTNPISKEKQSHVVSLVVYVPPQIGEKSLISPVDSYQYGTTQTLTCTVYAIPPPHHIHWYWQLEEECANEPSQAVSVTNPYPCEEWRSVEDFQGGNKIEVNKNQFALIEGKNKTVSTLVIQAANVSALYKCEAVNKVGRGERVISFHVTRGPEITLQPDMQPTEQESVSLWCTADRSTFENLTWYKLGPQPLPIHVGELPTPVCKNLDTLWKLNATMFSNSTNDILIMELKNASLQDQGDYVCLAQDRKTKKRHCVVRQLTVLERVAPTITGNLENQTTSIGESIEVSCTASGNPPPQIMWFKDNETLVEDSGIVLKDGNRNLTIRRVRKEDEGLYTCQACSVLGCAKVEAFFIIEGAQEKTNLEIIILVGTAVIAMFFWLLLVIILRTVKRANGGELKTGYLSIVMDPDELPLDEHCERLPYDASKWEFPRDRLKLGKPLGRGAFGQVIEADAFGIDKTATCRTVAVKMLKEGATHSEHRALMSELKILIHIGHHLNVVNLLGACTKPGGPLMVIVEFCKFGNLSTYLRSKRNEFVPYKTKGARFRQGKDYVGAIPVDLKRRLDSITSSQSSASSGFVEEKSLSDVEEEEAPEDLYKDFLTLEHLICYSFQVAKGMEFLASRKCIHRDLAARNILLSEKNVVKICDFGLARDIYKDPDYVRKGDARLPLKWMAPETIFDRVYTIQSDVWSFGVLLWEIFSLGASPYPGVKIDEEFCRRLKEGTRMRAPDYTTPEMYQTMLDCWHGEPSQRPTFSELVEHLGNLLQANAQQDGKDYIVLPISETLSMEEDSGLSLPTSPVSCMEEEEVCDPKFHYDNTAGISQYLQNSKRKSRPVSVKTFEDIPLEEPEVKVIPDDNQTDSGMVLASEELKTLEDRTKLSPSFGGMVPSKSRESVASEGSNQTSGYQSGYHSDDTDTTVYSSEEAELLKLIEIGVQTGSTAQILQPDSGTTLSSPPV

[2] = molecular target: Calcium/calmodulin-dependent protein kinase type II subunit alpha (Homo sapiens) (UniProt Q9UQM7); assay: Inhibition of recombinant full length human His-tagged CAMK2alpha expressed in baculovirus expression system using serine/threonine-4 peptide as substrate at 10 uM incubated for 60 mins in presence of ATP by Z'-LYTE assay
Chain of Calcium/calmodulin-dependent protein kinase type II subunit alpha (Homo sapiens) (Q9UQM7 whole entry): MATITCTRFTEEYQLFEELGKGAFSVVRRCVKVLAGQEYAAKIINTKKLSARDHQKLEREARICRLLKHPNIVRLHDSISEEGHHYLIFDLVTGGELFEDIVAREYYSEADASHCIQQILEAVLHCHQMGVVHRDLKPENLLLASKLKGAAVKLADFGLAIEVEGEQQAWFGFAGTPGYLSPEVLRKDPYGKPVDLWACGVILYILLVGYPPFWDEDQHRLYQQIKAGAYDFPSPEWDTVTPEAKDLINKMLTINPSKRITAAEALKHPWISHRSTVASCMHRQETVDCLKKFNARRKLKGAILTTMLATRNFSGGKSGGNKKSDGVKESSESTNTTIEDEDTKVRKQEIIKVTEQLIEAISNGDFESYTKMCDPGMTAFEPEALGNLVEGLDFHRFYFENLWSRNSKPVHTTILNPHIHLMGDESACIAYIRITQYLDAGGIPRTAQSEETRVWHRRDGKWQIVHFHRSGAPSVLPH

[3] = molecular target: Receptor-type tyrosine-protein kinase FLT3 (Homo sapiens) (UniProt P36888); assay: Inhibition of recombinant human His-tagged Flt3 expressed in baculovirus expression system using Tyr 02 peptide as substrate at 10 uM incubated for 60 mins in presence of ATP by Z'-LYTE assay
Chain of Receptor-type tyrosine-protein kinase FLT3 (Homo sapiens) (P36888 whole entry): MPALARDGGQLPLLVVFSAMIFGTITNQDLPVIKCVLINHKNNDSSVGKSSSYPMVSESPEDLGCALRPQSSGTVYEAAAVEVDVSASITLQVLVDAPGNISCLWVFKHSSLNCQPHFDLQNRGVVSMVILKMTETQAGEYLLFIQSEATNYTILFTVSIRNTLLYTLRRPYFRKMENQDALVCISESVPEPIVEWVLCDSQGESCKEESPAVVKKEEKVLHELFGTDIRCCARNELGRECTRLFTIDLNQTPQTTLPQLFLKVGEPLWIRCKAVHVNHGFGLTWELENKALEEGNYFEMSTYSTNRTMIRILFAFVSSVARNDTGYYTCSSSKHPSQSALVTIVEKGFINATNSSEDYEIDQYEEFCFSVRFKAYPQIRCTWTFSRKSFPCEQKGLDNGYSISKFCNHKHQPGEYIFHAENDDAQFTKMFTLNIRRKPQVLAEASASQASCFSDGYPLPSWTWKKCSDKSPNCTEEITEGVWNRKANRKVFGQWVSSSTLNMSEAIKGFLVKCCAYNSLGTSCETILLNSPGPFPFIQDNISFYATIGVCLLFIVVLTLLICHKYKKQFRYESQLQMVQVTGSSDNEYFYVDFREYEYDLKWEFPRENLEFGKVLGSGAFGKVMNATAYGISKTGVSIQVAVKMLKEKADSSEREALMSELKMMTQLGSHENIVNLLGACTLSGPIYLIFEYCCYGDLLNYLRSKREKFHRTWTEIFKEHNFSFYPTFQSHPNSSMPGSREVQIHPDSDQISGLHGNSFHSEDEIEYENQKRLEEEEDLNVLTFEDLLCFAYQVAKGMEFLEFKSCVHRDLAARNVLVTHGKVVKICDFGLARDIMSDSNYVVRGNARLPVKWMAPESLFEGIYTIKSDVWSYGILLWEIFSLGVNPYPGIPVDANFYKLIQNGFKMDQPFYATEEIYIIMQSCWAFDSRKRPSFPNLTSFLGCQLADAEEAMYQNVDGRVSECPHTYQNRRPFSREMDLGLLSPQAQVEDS

[4] = molecular target: Rho-associated protein kinase 1 (Homo sapiens) (UniProt Q13464); assay: Inhibition of recombinant human GST-tagged ROCK1 expressed in baculovirus expression system using serine/threonine-07 peptide as substrate at 10 uM by Z'-LYTE assay; details: time 60.0 min
[5] = molecular target: Cyclin-dependent kinase 5/CDK5 activator 1 (Homo sapiens) (UniProt Q00535+Q15078); assay: Inhibition of recombinant full length human GST/His-tagged CDK5/p25 expressed in baculovirus expression system using serine/threonine-12 peptide as substrate at 10 uM incubated for 60 mins in presence of ATP by Z'-LYTE assay
Chain of Cyclin-dependent kinase 5/CDK5 activator 1 (Homo sapiens) (Q00535 whole entry): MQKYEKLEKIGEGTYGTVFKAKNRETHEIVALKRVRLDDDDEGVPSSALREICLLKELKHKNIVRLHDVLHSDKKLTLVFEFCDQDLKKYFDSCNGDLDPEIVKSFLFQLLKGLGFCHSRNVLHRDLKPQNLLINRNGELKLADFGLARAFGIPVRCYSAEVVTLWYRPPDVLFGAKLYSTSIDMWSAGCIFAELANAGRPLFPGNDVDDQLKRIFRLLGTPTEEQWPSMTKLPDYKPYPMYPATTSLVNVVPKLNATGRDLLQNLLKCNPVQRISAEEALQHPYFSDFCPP
Chain of Cyclin-dependent kinase 5/CDK5 activator 1 (Homo sapiens) (Q15078 99-307 partner limits assumed): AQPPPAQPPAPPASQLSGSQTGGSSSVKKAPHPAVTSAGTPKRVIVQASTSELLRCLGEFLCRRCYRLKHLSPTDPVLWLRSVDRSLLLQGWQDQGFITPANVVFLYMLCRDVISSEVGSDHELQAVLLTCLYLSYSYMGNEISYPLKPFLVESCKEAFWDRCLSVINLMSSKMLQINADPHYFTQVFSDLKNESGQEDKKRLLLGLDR

[6] = molecular target: CDK2/Cyclin A2 (Homo sapiens) (UniProt P24941+P20248); assay: Inhibition of recombinant full length human His-tagged CDK2/Cyclin A expressed in baculovirus expression system using serine/threonine-12 peptide as substrate at 10 uM incubated for 60 mins in presence of ATP by Z'-LYTE assay
[7] = species on record: Homo sapiens; assay: Inhibition of recombinant full length human His-tagged CDK1/CyclinB expressed in baculovirus expression system using serine/threonine-18 peptide as substrate at 10 uM incubated for 60 mins in presence of ATP by Z'-LYTE assay
[8] = molecular target: Serine/threonine-protein kinase PAK 1 (Homo sapiens) (UniProt Q13153); assay: Inhibition of recombinant human full length GST-tagged PAK1 expressed in baculovirus expression system using serine/threonine-19 peptide as substrate at 10 uM by Z'-LYTE assay; details: time 60.0 min
[9] = system: SH-SY5Y; assay: Neuroprotective activity in human SH-SY5Y cells assessed as decrease in ethacrynic acid-induced TDP-43 phosphorylation preincubated for 1 hr followed by incubation with ethacrynic acid for 24 hrs measured at 10 uM by Western blot assay; type: functional, cell-based
[10] = molecular target: T1, Mitogen-activated protein kinase 12 (Homo sapiens) (UniProt P53778); assay: Inhibition of recombinant human full length His-tagged MAPK12 expressed in baculovirus expression system using serine/threonine-03 peptide as substrate at 10 uM incubated for 60 mins in presence of ATP by Z'-LYTE assay
T1 sequence (whole entry): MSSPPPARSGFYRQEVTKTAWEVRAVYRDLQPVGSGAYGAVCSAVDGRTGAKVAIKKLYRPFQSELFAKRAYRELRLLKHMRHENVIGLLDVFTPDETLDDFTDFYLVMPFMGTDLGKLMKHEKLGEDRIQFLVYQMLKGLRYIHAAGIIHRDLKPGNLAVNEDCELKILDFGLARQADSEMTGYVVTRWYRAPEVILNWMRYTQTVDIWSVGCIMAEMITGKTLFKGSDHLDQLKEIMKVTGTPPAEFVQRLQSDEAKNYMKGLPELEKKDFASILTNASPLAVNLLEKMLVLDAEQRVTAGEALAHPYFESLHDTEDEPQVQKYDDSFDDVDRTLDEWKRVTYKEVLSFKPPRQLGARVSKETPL

[11] = system: SH-SY5Y; assay: Neuroprotective activity in human SH-SY5Y cells assessed by effect on TDP-43 levels preincubated for 1 hr followed by incubation with ethacrynic acid for 24 hrs measured at 10 uM by Western blot assay; type: functional, cell-based
[12] = molecular target: Serine/threonine-protein kinase pim-3 (Homo sapiens) (UniProt Q86V86); assay: Inhibition of recombinant human GST-tagged PIM3 expressed in baculovirus expression system using serine/threonine-07 peptide as substrate at 10 uM by Z'-LYTE assay; details: time 60.0 min
[13] = molecular target: Tyrosine-protein kinase JAK2 (Homo sapiens) (UniProt O60674); assay: Inhibition of recombinant human GST-tagged JAK2 expressed in baculovirus expression system using Tyr-06 peptide as substrate at 10 uM incubated for 60 mins in presence of ATP by Z'-LYTE assay
Chain of Tyrosine-protein kinase JAK2 (Homo sapiens) (O60674 whole entry): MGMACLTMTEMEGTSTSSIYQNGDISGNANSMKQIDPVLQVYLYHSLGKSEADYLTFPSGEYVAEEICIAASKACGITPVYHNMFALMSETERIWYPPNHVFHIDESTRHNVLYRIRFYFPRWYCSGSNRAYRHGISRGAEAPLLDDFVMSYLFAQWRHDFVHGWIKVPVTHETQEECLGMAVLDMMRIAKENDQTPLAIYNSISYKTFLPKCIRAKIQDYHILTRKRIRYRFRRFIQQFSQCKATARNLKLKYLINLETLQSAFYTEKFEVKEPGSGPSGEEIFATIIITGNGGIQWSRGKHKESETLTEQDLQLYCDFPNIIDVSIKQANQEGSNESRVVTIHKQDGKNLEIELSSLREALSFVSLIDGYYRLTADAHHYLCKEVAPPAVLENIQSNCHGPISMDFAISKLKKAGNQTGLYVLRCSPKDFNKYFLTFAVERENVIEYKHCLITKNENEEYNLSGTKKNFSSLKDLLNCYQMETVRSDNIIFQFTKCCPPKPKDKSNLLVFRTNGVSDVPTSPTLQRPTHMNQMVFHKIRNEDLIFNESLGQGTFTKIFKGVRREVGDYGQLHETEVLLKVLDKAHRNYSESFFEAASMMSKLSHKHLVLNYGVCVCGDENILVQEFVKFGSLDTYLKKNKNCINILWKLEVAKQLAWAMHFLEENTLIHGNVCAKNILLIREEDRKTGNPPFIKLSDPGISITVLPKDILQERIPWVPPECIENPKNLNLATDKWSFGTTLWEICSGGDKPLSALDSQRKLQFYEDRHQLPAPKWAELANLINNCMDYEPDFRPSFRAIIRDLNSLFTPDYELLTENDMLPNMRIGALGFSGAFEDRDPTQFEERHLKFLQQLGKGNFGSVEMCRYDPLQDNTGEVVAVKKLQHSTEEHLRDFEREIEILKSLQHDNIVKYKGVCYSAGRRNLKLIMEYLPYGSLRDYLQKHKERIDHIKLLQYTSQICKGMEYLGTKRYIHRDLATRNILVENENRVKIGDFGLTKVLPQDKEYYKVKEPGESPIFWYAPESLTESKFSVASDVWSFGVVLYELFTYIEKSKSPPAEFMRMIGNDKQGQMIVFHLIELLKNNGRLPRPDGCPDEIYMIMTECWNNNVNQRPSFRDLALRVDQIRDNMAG

[14] = molecular target: T2, Serine/threonine-protein kinase Chk1 (Homo sapiens) (UniProt O14757); assay: Inhibition of human CHK1 using serine/threonine-07 peptide as substrate at 10 uM incubated for 60 mins in presence of ATP by Z'-LYTE assay
T2 sequence (whole entry): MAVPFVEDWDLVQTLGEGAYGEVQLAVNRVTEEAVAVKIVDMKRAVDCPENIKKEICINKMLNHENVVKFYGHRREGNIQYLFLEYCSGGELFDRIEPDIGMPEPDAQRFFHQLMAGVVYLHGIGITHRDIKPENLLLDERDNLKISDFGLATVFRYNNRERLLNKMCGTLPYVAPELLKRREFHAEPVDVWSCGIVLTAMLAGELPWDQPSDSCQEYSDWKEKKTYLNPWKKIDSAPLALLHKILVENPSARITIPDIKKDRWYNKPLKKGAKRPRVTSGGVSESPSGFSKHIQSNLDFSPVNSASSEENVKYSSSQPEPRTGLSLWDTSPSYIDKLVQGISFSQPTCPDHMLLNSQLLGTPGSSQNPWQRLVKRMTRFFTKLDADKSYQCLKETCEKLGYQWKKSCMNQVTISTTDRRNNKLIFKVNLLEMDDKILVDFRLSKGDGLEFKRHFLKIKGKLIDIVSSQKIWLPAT

[15] = molecular target: Glycogen synthase kinase-3 alpha (Homo sapiens) (UniProt P49840); assay: Inhibition of recombinant human full length GST-tagged GSK3A expressed in baculovirus expression system using serine/threonine-09 peptide as substrate at 10 uM incubated for 60 mins in presence of ATP by Z'-LYTE assay

inhibition [1]	inhibition [2]	inhibition [3]	inhibition [4]	inhibition [5]	inhibition [6]	inhibition [7]	inhibition [8]	inhibition [10]	inhibition [12]	inhibition [13]	inhibition [14]	inhibition [15]	Structure (SMILES)	Activity [9]	Activity [11]
inactive	inactive	inactive	inactive	inactive	inactive	inactive	inactive	inactive	inactive	inactive	inactive	inactive	c1ccc(CSc2ncnc3[nH]cnc23)cc1	Active	inactive
inactive	inactive	inactive	inactive	inactive	inactive	inactive	inactive	inactive	inactive	inactive	inactive	inactive	Clc1cccc(CSc2ncnc3[nH]cnc23)c1	Active	inactive

Structure (SMILES)	inhibition [1]	inhibition [2]	inhibition [3]	inhibition [4]	inhibition [5]	inhibition [6]	inhibition [7]	inhibition [8]	inhibition [10]	inhibition [12]	inhibition [13]	inhibition [14]	inhibition [15]	Activity [9]	Activity [11]
Brc1ccccc1CSc1ncnc2[nH]cnc12	inactive	inactive	inactive	inactive	inactive	inactive	inactive	inactive	inactive	inactive	inactive	inactive	inactive	Active	inactive
